Test results taken from publication PMC11012124, “Synthesis of Novel Triazine-Based Chalcones and 8,9-dihydro-7H-pyrimido[4,5-b][1,4]diazepines as Potential Leads in the Search of Anticancer, Antibacterial and Antifungal Agents” (International Journal of Molecular Sciences, 2024).

Assays:
Test in all cases: cells
UACC-257 = settings: Homo sapiens, UACC-257, 48 h
CAKI-1 = settings: Homo sapiens, CAKI-1, 48 h
SNB-19 = settings: Homo sapiens, SNB-19, 48 h
SK-MEL-28 = settings: Homo sapiens, SK-MEL-28, 48 h
SN12C = settings: Homo sapiens, 48 h
OVCAR-3 = settings: Homo sapiens, OVCAR-3, 48 h
UO-31 = settings: Homo sapiens, UO-31, 48 h
NCI-H460 = settings: Homo sapiens, NCI-H460, 48 h
HL-60(TB) = settings: Homo sapiens, HL-60, 48 h
T-47D = settings: Homo sapiens, T47D, 48 h
SK-MEL-5 = settings: Homo sapiens, SK-MEL-5, 48 h
HS 578T = settings: Homo sapiens, 48 h
KM12 = settings: Homo sapiens, KM12, 48 h
HCC-2998 = settings: Homo sapiens, HCC 2998, 48 h
A498 = settings: Homo sapiens, A498, 48 h
SNB-75 = settings: Homo sapiens, SNB-75, 48 h
A549/ATCC = settings: Homo sapiens, A549, 48 h
M14 = settings: Homo sapiens, M14, 48 h
SF-268 = settings: Homo sapiens, SF-268, 48 h
PC-3 = settings: Homo sapiens, PC-3, 48 h
HT29 = settings: Homo sapiens, HT-29, 48 h
MOLT-4 = settings: Homo sapiens, MOLT-4, 48 h
SF-539 = settings: Homo sapiens, SF-539, 48 h
MDA-MB-231/ATCC = settings: Homo sapiens, MDA-MB-231, 48 h
EKVX = settings: Homo sapiens, 48 h
K-562 = settings: Homo sapiens, K562, 48 h
CCRF-CEM = settings: Homo sapiens, 48 h
HCT-116 = settings: Homo sapiens, HCT-116, 48 h
LOX IMVI = settings: Homo sapiens, 48 h
MDA-MB-468 = settings: Homo sapiens, MDA-MB-468, 48 h
HOP-92 = settings: Homo sapiens, HOP-92, 48 h
U251 = settings: Homo sapiens, U-251, 48 h
UACC-62 = settings: Homo sapiens, UACC-62, 48 h
COLO 205 = settings: Homo sapiens, COLO 205, 48 h
SK-MEL-2 = settings: Homo sapiens, SK-MEL-2, 48 h
786-0 = settings: Homo sapiens, 786-0, 48 h
NCI-H522 = settings: Homo sapiens, NCI-H522, 48 h

## CN(C)c1nc(NCCNS(=O)(=O)c2ccc(C(=O)/C=C/c3ccccc3)cc2)nc(N2CCOCC2)n1 [23a]
UACC-257
  GI50: 17.9 µM
UACC-257; read-out: LC50
  CC50: 58.3 µM
CAKI-1
  GI50: 12.2 µM
CAKI-1; read-out: LC50
  CC50: 49.9 µM
SNB-19
  GI50: 14.8 µM
SNB-19; read-out: LC50
  CC50: 57.3 µM
SK-MEL-28
  GI50: 17.2 µM
SK-MEL-28; read-out: LC50
  CC50: 63.9 µM
SN12C
  GI50: 14.6 µM
SN12C; read-out: LC50
  CC50: 56.1 µM
OVCAR-3
  GI50: 15.3 µM
OVCAR-3; read-out: LC50
  CC50: 53.4 µM
UO-31
  GI50: 11.2 µM
UO-31; read-out: LC50
  CC50: 55.7 µM
NCI-H460
  GI50: 18.2 µM
NCI-H460; read-out: LC50
  CC50: 80.7 µM
HL-60(TB)
  GI50: 6.18 µM
HL-60(TB); read-out: LC50
  CC50: > 100 µM
T-47D
  GI50: 16 µM
T-47D; read-out: LC50
  CC50: 87.4 µM
SK-MEL-5
  GI50: 15.9 µM
SK-MEL-5; read-out: LC50
  CC50: 54.3 µM
HS 578T
  GI50: 17.1 µM
HS 578T; read-out: LC50
  CC50: > 100 µM
KM12
  GI50: 2 µM
KM12; read-out: LC50
  CC50: 8.93 µM
HCC-2998
  GI50: 16.7 µM
HCC-2998; read-out: LC50
  CC50: 57.7 µM
A498
  GI50: 14.6 µM
A498; read-out: LC50
  CC50: 52.9 µM
SNB-75
  GI50: 5.49 µM
SNB-75; read-out: LC50
  CC50: 44.6 µM
A549/ATCC
  GI50: 13.6 µM
A549/ATCC; read-out: LC50
  CC50: 59.1 µM
M14
  GI50: 14.6 µM
M14; read-out: LC50
  CC50: 68.5 µM
SF-268
  GI50: 13.7 µM
SF-268; read-out: LC50
  CC50: 70.1 µM
PC-3
  GI50: 8.63 µM
PC-3; read-out: LC50
  CC50: 58.9 µM
HT29
  GI50: 3.8 µM
HT29; read-out: LC50
  CC50: 43.9 µM
MOLT-4
  GI50: 4.27 µM
MOLT-4; read-out: LC50
  CC50: > 100 µM
SF-539
  GI50: 11.1 µM
SF-539; read-out: LC50, SF-539, 48 h
  CC50: 53.2 µM
MDA-MB-231/ATCC
  GI50: 13.9 µM
MDA-MB-231/ATCC; read-out: LC50
  CC50: 54.7 µM
EKVX
  GI50: 14.7 µM
EKVX; read-out: LC50
  CC50: 63.8 µM
K-562; K-562, 48 h
  GI50: 2.19 µM
K-562; read-out: LC50
  CC50: > 100 µM
CCRF-CEM
  GI50: 4.41 µM
CCRF-CEM; read-out: LC50
  CC50: > 100 µM
HCT-116
  GI50: 1.82 µM
HCT-116; read-out: LC50
  CC50: 7.1 µM
LOX IMVI
  GI50: 1.97 µM
LOX IMVI; read-out: LC50, LOX IMVI, 48 h
  CC50: 8.68 µM
MDA-MB-468
  GI50: 4.17 µM
MDA-MB-468; read-out: LC50
  CC50: 49.9 µM
HOP-92
  GI50: 12.2 µM
HOP-92; read-out: LC50
  CC50: 58 µM
U251; U251, 48 h
  GI50: 11.7 µM
U251; read-out: LC50
  CC50: 57.2 µM
UACC-62
  GI50: 12 µM
UACC-62; read-out: LC50
  CC50: 52.3 µM
COLO 205
  GI50: 20.2 µM
COLO 205; read-out: LC50
  CC50: 80.7 µM
SK-MEL-2
  GI50: 15.3 µM
SK-MEL-2; read-out: LC50
  CC50: 56.9 µM
786-0
  GI50: 14.8 µM
786-0; read-out: LC50
  CC50: 57.1 µM
NCI-H522
  GI50: 13.6 µM
NCI-H522; read-out: LC50
  CC50: 54.1 µM
